Calls of active or inactive are those of the source.
Assays:
[1] = target: Dual specificity protein kinase CLK4 (Homo sapiens, UniProt Q9HAZ1)
[2] = target: Serine/threonine-protein kinase PAK 6 (Homo sapiens, UniProt Q9NQU5)
[3] = target: Uncharacterized aarF domain-containing protein kinase 5 (Homo sapiens, UniProt Q3MIX3)
Ephrin type-A receptor 7 = Ephrin type-A receptor 7 (Homo sapiens, UniProt Q15375)
[4] = target: Membrane-associated progesterone receptor component 1 (Homo sapiens, UniProt O00264)
[5] = target: T1, Protein kinase C zeta type (Homo sapiens, UniProt Q05513)
T1 sequence (Q05513 whole entry): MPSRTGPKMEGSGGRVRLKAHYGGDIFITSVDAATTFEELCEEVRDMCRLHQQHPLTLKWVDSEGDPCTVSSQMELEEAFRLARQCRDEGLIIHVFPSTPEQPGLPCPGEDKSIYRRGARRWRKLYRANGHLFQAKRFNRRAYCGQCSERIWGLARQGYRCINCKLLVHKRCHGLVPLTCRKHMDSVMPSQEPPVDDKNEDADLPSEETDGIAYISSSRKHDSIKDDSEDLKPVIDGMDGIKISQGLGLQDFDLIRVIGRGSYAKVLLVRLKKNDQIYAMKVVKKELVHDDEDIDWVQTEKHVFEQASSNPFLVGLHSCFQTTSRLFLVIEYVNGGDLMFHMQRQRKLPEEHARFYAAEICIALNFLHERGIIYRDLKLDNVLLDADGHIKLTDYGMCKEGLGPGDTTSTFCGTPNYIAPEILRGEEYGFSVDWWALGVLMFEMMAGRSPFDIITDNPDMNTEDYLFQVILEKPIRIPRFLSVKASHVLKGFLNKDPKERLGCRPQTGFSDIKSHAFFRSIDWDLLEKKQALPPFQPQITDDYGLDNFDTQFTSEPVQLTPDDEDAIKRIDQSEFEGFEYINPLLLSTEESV

[6] = target: T2, Thyroid hormone receptor-associated protein 3 (Homo sapiens, UniProt Q9Y2W1)
T2 sequence (Q9Y2W1 whole entry): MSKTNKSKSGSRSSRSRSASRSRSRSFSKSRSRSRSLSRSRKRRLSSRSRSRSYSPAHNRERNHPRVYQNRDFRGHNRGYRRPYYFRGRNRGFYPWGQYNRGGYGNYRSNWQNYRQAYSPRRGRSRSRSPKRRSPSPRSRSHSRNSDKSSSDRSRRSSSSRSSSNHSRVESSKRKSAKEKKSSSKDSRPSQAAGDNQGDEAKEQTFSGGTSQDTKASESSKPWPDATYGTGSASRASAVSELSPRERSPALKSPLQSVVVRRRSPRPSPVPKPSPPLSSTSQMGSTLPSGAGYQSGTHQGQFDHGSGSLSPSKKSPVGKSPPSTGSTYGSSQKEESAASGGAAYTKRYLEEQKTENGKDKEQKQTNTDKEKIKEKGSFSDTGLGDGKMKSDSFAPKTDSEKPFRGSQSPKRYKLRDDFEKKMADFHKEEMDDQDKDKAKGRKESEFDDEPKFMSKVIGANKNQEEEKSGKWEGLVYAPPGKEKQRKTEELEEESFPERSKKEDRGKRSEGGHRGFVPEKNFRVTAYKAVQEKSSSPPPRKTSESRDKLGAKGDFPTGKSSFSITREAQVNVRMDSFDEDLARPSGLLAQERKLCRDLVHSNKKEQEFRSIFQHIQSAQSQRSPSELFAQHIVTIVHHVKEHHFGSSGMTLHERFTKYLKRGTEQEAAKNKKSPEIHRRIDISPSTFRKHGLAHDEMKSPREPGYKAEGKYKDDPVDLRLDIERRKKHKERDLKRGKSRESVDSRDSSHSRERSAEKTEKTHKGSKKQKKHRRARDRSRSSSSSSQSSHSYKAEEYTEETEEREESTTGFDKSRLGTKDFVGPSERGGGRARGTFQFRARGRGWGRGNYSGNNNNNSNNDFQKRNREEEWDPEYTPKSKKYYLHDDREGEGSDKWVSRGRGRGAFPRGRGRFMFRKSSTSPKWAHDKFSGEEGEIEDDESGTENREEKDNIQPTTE

Ephrin type-A receptor 1 = target: T3, Ephrin type-A receptor 1 (Homo sapiens, UniProt P21709)
T3 sequence (P21709 whole entry): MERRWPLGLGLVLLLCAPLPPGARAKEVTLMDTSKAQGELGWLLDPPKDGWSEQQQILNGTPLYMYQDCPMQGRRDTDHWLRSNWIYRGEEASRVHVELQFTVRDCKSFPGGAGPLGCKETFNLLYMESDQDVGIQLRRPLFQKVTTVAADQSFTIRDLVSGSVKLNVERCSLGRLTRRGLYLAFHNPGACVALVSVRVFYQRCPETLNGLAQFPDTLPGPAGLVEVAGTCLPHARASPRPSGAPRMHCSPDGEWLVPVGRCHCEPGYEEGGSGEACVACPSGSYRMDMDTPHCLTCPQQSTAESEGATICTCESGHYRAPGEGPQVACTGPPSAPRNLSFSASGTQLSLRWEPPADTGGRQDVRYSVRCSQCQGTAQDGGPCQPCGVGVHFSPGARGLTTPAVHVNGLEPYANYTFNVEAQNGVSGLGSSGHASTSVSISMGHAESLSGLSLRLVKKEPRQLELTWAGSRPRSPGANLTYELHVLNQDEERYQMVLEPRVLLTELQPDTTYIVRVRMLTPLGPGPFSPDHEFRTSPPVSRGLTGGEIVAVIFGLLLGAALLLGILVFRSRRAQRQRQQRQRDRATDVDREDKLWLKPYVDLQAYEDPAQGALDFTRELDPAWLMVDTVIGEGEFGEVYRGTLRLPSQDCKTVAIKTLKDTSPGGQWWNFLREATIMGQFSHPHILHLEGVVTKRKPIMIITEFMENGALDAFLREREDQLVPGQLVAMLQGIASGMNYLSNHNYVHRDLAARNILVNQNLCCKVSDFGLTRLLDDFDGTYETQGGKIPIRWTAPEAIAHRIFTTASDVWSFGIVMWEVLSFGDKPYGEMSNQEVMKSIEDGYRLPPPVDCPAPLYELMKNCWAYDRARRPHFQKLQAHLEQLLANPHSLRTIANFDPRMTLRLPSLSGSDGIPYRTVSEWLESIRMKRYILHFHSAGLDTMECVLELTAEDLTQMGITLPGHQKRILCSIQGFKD

[7] = target: Protein kinase C theta type (Homo sapiens, UniProt Q04759)
[8] = target: Dual specificity testis-specific protein kinase 1 (Homo sapiens, UniProt Q15569)
[9] = target: High affinity nerve growth factor receptor (Homo sapiens, UniProt P04629)
[10] = target: Serine/threonine-protein kinase Nek7 (Homo sapiens, UniProt Q8TDX7)

Measured: Kd
Note: in the data inactive means no Kd found up to 30 µM.

Membrane-associated progesterone receptor component 1, sequence (O00264 whole entry): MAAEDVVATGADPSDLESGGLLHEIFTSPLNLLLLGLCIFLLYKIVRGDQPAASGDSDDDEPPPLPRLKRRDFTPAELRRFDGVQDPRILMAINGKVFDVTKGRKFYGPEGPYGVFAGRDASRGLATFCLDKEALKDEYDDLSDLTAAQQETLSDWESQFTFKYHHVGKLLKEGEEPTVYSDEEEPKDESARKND
Serine/threonine-protein kinase Nek7, sequence (Q8TDX7 whole entry): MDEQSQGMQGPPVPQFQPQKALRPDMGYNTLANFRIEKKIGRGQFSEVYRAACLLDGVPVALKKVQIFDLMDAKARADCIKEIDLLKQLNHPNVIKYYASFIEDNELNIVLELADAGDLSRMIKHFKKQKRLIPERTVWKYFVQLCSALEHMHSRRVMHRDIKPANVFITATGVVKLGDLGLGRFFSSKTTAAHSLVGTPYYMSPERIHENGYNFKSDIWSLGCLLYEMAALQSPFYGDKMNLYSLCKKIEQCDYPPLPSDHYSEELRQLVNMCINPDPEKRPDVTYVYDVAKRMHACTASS
Serine/threonine-protein kinase PAK 6, sequence (Q9NQU5 whole entry, the tested form may be a part): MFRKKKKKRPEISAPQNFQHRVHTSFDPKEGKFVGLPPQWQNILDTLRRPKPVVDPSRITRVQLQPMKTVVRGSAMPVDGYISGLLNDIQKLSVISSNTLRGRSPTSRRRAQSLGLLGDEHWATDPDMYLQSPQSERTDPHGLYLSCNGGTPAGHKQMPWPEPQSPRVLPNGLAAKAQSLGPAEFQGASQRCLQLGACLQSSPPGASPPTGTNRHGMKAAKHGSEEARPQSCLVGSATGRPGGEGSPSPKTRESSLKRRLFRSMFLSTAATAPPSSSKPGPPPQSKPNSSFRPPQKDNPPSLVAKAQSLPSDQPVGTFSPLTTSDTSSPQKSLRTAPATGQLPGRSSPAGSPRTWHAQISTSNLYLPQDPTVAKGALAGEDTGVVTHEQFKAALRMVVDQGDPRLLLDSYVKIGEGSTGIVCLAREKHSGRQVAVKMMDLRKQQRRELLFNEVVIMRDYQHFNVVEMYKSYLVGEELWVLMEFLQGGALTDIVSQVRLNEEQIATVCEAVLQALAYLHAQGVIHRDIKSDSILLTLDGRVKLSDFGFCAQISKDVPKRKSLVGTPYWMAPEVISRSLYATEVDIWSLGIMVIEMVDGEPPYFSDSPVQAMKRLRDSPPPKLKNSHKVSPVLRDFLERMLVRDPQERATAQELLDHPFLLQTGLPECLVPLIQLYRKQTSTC
Ephrin type-A receptor 7, sequence (Q15375 whole entry): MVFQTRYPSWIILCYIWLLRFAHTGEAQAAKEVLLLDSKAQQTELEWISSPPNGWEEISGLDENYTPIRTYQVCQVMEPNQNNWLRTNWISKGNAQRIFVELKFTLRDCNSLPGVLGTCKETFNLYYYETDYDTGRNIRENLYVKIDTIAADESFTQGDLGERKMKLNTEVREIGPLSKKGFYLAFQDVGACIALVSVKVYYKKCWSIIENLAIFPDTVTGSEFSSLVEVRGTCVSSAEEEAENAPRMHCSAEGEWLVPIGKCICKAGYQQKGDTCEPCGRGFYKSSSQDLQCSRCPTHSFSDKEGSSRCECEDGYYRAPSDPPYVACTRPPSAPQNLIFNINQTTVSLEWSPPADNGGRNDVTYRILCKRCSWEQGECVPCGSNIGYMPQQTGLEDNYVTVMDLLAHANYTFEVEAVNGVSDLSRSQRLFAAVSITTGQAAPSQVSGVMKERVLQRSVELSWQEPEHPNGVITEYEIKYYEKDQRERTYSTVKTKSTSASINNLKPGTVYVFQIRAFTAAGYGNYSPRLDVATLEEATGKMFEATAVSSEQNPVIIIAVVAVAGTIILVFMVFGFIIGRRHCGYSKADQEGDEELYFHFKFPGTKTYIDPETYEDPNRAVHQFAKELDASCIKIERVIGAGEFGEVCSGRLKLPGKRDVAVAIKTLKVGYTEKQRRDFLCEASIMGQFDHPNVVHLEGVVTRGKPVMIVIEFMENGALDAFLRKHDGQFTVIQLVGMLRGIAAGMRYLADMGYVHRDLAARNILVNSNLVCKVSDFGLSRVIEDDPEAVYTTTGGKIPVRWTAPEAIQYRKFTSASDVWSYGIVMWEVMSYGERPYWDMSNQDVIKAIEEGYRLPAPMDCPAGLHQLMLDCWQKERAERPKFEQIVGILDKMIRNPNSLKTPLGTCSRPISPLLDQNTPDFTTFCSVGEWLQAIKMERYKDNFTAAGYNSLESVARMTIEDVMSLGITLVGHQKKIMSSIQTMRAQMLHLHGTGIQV
Uncharacterized aarF domain-containing protein kinase 5, sequence (Q3MIX3 whole entry, the tested form may be a part): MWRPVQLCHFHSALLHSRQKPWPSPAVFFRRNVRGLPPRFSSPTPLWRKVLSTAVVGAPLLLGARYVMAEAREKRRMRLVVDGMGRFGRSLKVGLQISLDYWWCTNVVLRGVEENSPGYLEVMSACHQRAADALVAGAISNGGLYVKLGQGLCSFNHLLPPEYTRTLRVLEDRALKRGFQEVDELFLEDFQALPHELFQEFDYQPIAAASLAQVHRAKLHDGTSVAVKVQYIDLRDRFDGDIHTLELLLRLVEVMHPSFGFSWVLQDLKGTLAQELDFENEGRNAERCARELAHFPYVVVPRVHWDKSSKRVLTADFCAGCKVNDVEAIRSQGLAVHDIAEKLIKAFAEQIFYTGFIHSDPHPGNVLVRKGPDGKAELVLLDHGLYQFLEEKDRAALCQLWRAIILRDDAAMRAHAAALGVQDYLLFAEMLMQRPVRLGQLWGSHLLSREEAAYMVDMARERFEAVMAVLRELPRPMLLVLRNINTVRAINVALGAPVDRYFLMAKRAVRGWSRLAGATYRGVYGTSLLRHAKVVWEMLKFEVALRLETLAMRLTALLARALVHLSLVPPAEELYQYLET
High affinity nerve growth factor receptor, sequence (P04629 whole entry): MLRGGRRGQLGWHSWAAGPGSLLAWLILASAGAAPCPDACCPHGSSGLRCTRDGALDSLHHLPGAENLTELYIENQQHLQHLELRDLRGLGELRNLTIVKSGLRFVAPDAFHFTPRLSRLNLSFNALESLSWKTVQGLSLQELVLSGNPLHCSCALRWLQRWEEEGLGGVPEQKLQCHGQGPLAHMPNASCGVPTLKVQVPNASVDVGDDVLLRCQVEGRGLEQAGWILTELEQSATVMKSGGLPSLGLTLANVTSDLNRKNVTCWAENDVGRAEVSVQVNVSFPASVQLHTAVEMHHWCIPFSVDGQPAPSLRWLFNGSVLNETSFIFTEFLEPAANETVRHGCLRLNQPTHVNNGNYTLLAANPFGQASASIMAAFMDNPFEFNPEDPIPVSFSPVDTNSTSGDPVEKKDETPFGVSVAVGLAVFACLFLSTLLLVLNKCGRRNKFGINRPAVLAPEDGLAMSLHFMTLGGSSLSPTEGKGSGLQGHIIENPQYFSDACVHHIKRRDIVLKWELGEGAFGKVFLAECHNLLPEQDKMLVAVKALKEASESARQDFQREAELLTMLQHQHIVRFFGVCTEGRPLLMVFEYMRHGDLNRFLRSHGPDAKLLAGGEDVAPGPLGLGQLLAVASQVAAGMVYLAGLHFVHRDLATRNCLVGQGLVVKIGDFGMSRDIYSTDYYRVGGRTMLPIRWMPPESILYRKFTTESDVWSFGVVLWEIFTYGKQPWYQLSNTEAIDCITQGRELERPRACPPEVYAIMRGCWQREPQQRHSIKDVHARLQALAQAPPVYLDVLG
Protein kinase C theta type, sequence (Q04759 whole entry): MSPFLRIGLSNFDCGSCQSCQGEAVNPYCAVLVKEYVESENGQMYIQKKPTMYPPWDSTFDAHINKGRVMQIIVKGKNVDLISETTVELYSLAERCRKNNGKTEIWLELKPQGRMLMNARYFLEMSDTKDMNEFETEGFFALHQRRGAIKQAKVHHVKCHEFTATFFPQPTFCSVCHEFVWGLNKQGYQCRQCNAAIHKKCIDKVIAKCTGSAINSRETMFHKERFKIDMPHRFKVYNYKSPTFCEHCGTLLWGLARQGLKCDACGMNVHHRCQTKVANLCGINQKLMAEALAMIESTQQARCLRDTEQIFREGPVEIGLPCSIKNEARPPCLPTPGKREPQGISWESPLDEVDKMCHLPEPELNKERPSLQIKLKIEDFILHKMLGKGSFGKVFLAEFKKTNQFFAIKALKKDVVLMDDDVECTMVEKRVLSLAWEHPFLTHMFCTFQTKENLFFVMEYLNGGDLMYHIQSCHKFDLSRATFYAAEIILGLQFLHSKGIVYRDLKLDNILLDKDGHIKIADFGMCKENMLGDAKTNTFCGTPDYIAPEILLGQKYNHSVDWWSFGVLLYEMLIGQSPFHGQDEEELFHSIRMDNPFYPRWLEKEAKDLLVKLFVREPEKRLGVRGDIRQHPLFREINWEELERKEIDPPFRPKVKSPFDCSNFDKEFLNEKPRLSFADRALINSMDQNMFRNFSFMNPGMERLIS
Dual specificity protein kinase CLK4, sequence (Q9HAZ1 whole entry): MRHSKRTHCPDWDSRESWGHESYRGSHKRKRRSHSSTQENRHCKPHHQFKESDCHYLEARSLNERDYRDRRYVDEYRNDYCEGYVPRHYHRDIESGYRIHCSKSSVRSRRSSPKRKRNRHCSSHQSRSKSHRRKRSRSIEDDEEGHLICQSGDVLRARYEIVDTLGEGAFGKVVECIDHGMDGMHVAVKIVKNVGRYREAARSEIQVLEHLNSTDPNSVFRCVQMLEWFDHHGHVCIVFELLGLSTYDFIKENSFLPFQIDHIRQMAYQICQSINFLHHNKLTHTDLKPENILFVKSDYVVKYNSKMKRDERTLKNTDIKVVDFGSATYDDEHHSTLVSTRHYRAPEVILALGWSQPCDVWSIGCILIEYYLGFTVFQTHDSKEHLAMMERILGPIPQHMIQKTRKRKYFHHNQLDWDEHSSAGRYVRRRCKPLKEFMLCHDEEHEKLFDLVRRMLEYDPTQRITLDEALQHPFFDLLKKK

Cn1cc(-c2ccc3nnc(C(F)(F)c4ccc5ncccc5c4)n3n2)cn1 [JNJ-38877605]
inactive: [1] > 30 µM | [2] > 30 µM | [3] > 30 µM | Ephrin type-A receptor 7 > 30 µM | [4] > 30 µM | [5] > 30 µM | [6] > 30 µM | Ephrin type-A receptor 1 > 30 µM | [7] > 30 µM | [8] > 30 µM | [9] > 30 µM | [10] > 30 µM

O=C(O)[C@]1(Cc2cccc(Nc3nccs3)n2)CC[C@@H](Oc2cccc(Cl)c2F)CC1 [MK-5108]
inactive: [1] > 30 µM | [2] > 30 µM | [3] > 30 µM | Ephrin type-A receptor 7 > 30 µM | [4] > 30 µM | [5] > 30 µM | [6] > 30 µM | [7] > 30 µM | [8] > 30 µM | [9] > 30 µM | [10] > 30 µM
